# Experimental data: patent US20230085307A1, “PYRIDAZINONE COMPOUND AND HERBICIDE” (NISSAN CHEMICAL CORPORATION, priority 2019, published 2023)
# How the values were obtained:
# [1] = system: late watergrass; assay: Test Example 1: herbicidal activity, application before weed generation under submerged conditions (Table 16, symbol A); type: in vivo, late watergrass (Echinochloa oryzicola); settings: 320 g/ha applied herbicide
# Method in brief: (§1)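 Alluvial soil was flooded to 4 cm depth, weed seeds were sown mixed and 2.5-leaf rice seedlings were transplanted. On sowing day, the compound's emulsion, diluted in water to a set dose, was applied to the water surface. Plants grew at 25–30 °C and were scored 0–5 after three weeks.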
# [2] = system: Japanese bulrush; assay: Test Example 1: herbicidal activity, application before weed generation under submerged conditions (Table 16, symbol B); type: in vivo, Japanese bulrush (Schoenoplectus juncoides); settings: 320 g/ha applied herbicide
# Method in brief: as §1
# [3] = system: oval-leafed pondweed; assay: Test Example 1: herbicidal activity, application before weed generation under submerged conditions (Table 16, symbol C); type: in vivo, oval-leafed pondweed (Monochoria vaginalis); settings: 320 g/ha applied herbicide
# Method in brief: as §1
# [4] = system: barnyard grass; assay: Test Example 3: herbicidal effect by foliage application, Wagner pot (Table 18, symbol H); type: in vivo, barnyard grass (Echinochloa crus-galli)
# Method in brief: (§2)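 Plants were sown in alluvial soil held under 0.1–0.5 cm standing water and grown 14 days in a greenhouse at 25–30 °C. An emulsifiable formulation, water-diluted to the set dose, was then sprayed onto the foliage, and effects were scored three weeks later using previously defined criteria.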
# [5] = system: Chinese sprangletop; assay: Test Example 3: herbicidal effect by foliage application, Wagner pot (Table 18, symbol D); type: in vivo, chinese sprangletop (Leptochloa chinensis)
# Method in brief: as §2
# [6] = system: rice flat sedge; assay: Test Example 3: herbicidal effect by foliage application, Wagner pot (Table 18, symbol E); type: in vivo, rice flat sedge (Cyperus iria)
# Method in brief: as §2
# [7] = system: southern crabgrass; assay: Test Example 4: herbicidal effect by soil treatment (Table 19, symbol F); type: in vivo, southern crabgrass (Digitaria ciliaris)
# Method in brief: (§3)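 Emulsion of test compound, water-diluted to predetermined amount, sprayed on soil after sowing (seed depth ~1.5 cm, sterilized diluvial soil). Greenhouse, 25–30° C. Effect graded at three weeks post-spray.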
# [8] = system: green foxtail; assay: Test Example 4: herbicidal effect by soil treatment (Table 19, symbol G); type: in vivo, green foxtail (Setaria viridis)
# Method in brief: as §3
# [9] = system: barnyard grass; assay: Test Example 4: herbicidal effect by soil treatment (Table 19, symbol H); type: in vivo, barnyard grass (Echinochloa crus-galli)
# Method in brief: as §3
# [10] = system: wild oat; assay: Test Example 4: herbicidal effect by soil treatment (Table 19, symbol I); type: in vivo, wild oat (Avena fatua)
# Method in brief: as §3
# [11] = system: blackgrass; assay: Test Example 4: herbicidal effect by soil treatment (Table 19, symbol J); type: in vivo, blackgrass (Alopecurus myosuroides)
# Method in brief: as §3
# [12] = system: Italian ryegrass; assay: Test Example 4: herbicidal effect by soil treatment (Table 19, symbol K); type: in vivo, Italian ryegrass (Lolium multiflorum)
# Method in brief: as §3
# [13] = system: windgrass; assay: Test Example 4: herbicidal effect by soil treatment (Table 19, symbol L); type: in vivo, windgrass (Apera spica-venti)
# Method in brief: as §3
# [14] = system: velvetleaf; assay: Test Example 4: herbicidal effect by soil treatment (Table 19, symbol M); type: in vivo, velvetleaf (Abutilon theophrasti)
# Method in brief: as §3
# [15] = system: redroot pigweed; assay: Test Example 4: herbicidal effect by soil treatment (Table 19, symbol N); type: in vivo, redroot pigweed (Amaranthus retroflexus)
# Method in brief: as §3
# [16] = system: lambsquarters; assay: Test Example 4: herbicidal effect by soil treatment (Table 19, symbol O); type: in vivo, lambsquarters (Chenopodium album)
# Method in brief: as §3
# [17] = system: false cleavers; assay: Test Example 4: herbicidal effect by soil treatment (Table 19, symbol Q); type: in vivo, false cleavers (Galium spurium)
# Method in brief: as §3
# [18] = system: southern crabgrass; assay: Test Example 5: herbicidal effect by foliage application, plastic box (Table 20, symbol F); type: in vivo, southern crabgrass (Digitaria ciliaris); settings: foliage application, evaluated three weeks after application
# Method in brief: (§4)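 Post-emergence foliar test in sterilized diluvial soil. Compound applied as water-diluted emulsion at a predetermined rate to 14-day-old plants; evaluation at three weeks.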
# [19] = system: green foxtail; assay: Test Example 5: herbicidal effect by foliage application, plastic box (Table 20, symbol G); type: in vivo, green foxtail (Setaria viridis); settings: foliage application, evaluated three weeks after application
# Method in brief: as §4
# [20] = system: barnyard grass; assay: Test Example 5: herbicidal effect by foliage application, plastic box (Table 20, symbol H); type: in vivo, barnyard grass (Echinochloa crus-galli); settings: foliage application, evaluated three weeks after application
# Method in brief: as §4
# [21] = system: wild oat; assay: Test Example 5: herbicidal effect by foliage application, plastic box (Table 20, symbol I); type: in vivo, wild oat (Avena fatua); settings: foliage application, evaluated three weeks after application
# Method in brief: as §4
# [22] = system: blackgrass; assay: Test Example 5: herbicidal effect by foliage application, plastic box (Table 20, symbol J); type: in vivo, blackgrass (Alopecurus myosuroides); settings: foliage application, evaluated three weeks after application
# Method in brief: as §4
# [23] = system: Italian ryegrass; assay: Test Example 5: herbicidal effect by foliage application, plastic box (Table 20, symbol K); type: in vivo, Italian ryegrass (Lolium multiflorum); settings: foliage application, evaluated three weeks after application
# Method in brief: as §4
# [24] = system: windgrass; assay: Test Example 5: herbicidal effect by foliage application, plastic box (Table 20, symbol L); type: in vivo, windgrass (Apera spica-venti); settings: foliage application, evaluated three weeks after application
# Method in brief: as §4
# [25] = system: velvetleaf; assay: Test Example 5: herbicidal effect by foliage application, plastic box (Table 20, symbol M); type: in vivo, velvetleaf (Abutilon theophrasti); settings: foliage application, evaluated three weeks after application
# Method in brief: as §4
# [26] = system: redroot pigweed; assay: Test Example 5: herbicidal effect by foliage application, plastic box (Table 20, symbol N); type: in vivo, redroot pigweed (Amaranthus retroflexus); settings: foliage application, evaluated three weeks after application
# Method in brief: as §4
# [27] = system: lambsquarters; assay: Test Example 5: herbicidal effect by foliage application, plastic box (Table 20, symbol O); type: in vivo, lambsquarters (Chenopodium album); settings: foliage application, evaluated three weeks after application
# Method in brief: as §4
# [28] = system: chickweed; assay: Test Example 5: herbicidal effect by foliage application, plastic box (Table 20, symbol P); type: in vivo, common chickweed (Stellaria media); settings: foliage application, evaluated three weeks after application
# Method in brief: as §4
# [29] = system: persian speedwell; assay: Test Example 5: herbicidal effect by foliage application, plastic box (Table 20, symbol R); type: in vivo, Persian speedwell (Veronica persica); settings: foliage application, evaluated three weeks after application
# Method in brief: as §4
# [30] = system: chickweed; assay: Test Example 4: herbicidal effect by soil treatment (Table 19, symbol P); type: in vivo, common chickweed (Stellaria media); settings: amount of applied herbicide 320 g/ha
# Method in brief: as §3
# [31] = amount of applied herbicide 320 g/ha
smiles,measurement,setting,value
CCCC(=O)Oc1c(C)nn(C)c(=O)c1-c1c(-c2ccc(Cl)c(Cl)c2)sc2ccc(F)cc12 [2-082],Herbicidal effect on A: late watergrass (grade 0-5),[1],2 (Herbicidal rate of 20% or more and less than 40%)
same,Herbicidal effect on B: Japanese bulrush (grade 0-5),[2],3 (Herbicidal rate of 40% or more and less than 70%)
same,Herbicidal effect on C: oval-leafed pondweed (grade 0-5),[3],0 (Herbicidal rate of 5% or less (almost no effect))
same,"herbicidal effect on H (barnyard grass), rating 0-5",[4]; 320 g/ha,4 (Herbicidal rate of 70% or more and less than 90%)
same,"herbicidal effect on D (Chinese sprangletop), rating 0-5",[5]; 320 g/ha,2 (Herbicidal rate of 20% or more and less than 40%)
same,"herbicidal effect on E (rice flat sedge), rating 0-5",[6]; 320 g/ha,4 (Herbicidal rate of 70% or more and less than 90%)
same,"herbicidal effect rating, F: southern crabgrass",[7]; 320 g/ha,1 (Herbicidal rate of 5% or more and less than 20%)
same,"herbicidal effect rating, G: green foxtail",[8]; 320 g/ha,0 (Herbicidal rate of 5% or less (almost no effect))
same,"herbicidal effect rating, H: barnyard grass",[9]; 320 g/ha,0 (Herbicidal rate of 5% or less (almost no effect))
same,"herbicidal effect rating, I: wild oat",[10]; 320 g/ha,0 (Herbicidal rate of 5% or less (almost no effect))
same,"herbicidal effect rating, J: blackgrass",[11]; 320 g/ha,0 (Herbicidal rate of 5% or less (almost no effect))
same,"herbicidal effect rating, K: Italian ryegrass",[12]; 320 g/ha,0 (Herbicidal rate of 5% or less (almost no effect))
same,"herbicidal effect rating, L: windgrass",[13]; 320 g/ha,0 (Herbicidal rate of 5% or less (almost no effect))
same,"herbicidal effect rating, M: velvetleaf",[14]; 320 g/ha,0 (Herbicidal rate of 5% or less (almost no effect))
same,"herbicidal effect rating, N: redroot pigweed",[15]; 320 g/ha,3 (Herbicidal rate of 40% or more and less than 70%)
same,"herbicidal effect rating, O: lambsquarters",[16]; 320 g/ha,2 (Herbicidal rate of 20% or more and less than 40%)
same,"herbicidal effect rating, Q: false cleavers",[17]; 320 g/ha,0 (Herbicidal rate of 5% or less (almost no effect))
same,herbicidal effect on F: southern crabgrass,[18]; 320 g/ha,0 (Herbicidal rate of 5% or less (almost no effect))
same,herbicidal effect on G: green foxtail,[19]; 320 g/ha,0 (Herbicidal rate of 5% or less (almost no effect))
same,herbicidal effect on H: barnyard grass,[20]; 320 g/ha,0 (Herbicidal rate of 5% or less (almost no effect))
same,herbicidal effect on I: wild oat,[21]; 320 g/ha,0 (Herbicidal rate of 5% or less (almost no effect))
same,herbicidal effect on J: blackgrass,[22]; 320 g/ha,0 (Herbicidal rate of 5% or less (almost no effect))
same,herbicidal effect on K: Italian ryegrass,[23]; 320 g/ha,0 (Herbicidal rate of 5% or less (almost no effect))
same,herbicidal effect on L: windgrass,[24]; 320 g/ha,0 (Herbicidal rate of 5% or less (almost no effect))
same,herbicidal effect on M: velvetleaf,[25]; 320 g/ha,3 (Herbicidal rate of 40% or more and less than 70%)
same,herbicidal effect on N: redroot pigweed,[26]; 320 g/ha,3 (Herbicidal rate of 40% or more and less than 70%)
same,herbicidal effect on O: lambsquarters,[27]; 320 g/ha,3 (Herbicidal rate of 40% or more and less than 70%)
same,herbicidal effect on P: chickweed,[28]; 320 g/ha,5 (Herbicidal rate of 90% or more (almost completely withered))
same,herbicidal effect on R: persian speedwell,[29]; 320 g/ha,3 (Herbicidal rate of 40% or more and less than 70%)
Cc1nn(C)c(=O)c(-c2c(-c3ccc(CSCC(F)F)cc3)sc3ccc(F)cc23)c1O [2-330],Herbicidal effect on A: late watergrass (grade 0-5),[1],3 (Herbicidal rate of 40% or more and less than 70%)
same,Herbicidal effect on B: Japanese bulrush (grade 0-5),[2],0 (Herbicidal rate of 5% or less (almost no effect))
same,Herbicidal effect on C: oval-leafed pondweed (grade 0-5),[3],0 (Herbicidal rate of 5% or less (almost no effect))
same,herbicidal effect on H: barnyard grass,[4]; [31],5 (Herbicidal rate of 90% or more (almost completely withered))
same,herbicidal effect on D: Chinese sprangletop,[5]; [31],2 (Herbicidal rate of 20% or more and less than 40%)
same,herbicidal effect on E: rice flat sedge,[6]; [31],4 (Herbicidal rate of 70% or more and less than 90%)
same,herbicidal effect on F: southern crabgrass,[7]; [31],3 (Herbicidal rate of 40% or more and less than 70%)
same,herbicidal effect on G: green foxtail,[8]; [31],1 (Herbicidal rate of 5% or more and less than 20%)
same,herbicidal effect on H: barnyard grass,[9]; [31],2 (Herbicidal rate of 20% or more and less than 40%)
same,herbicidal effect on I: wild oat,[10]; [31],0 (Herbicidal rate of 5% or less (almost no effect))
same,herbicidal effect on J: blackgrass,[11]; [31],0 (Herbicidal rate of 5% or less (almost no effect))
same,herbicidal effect on K: Italian ryegrass,[12]; [31],4 (Herbicidal rate of 70% or more and less than 90%)
same,herbicidal effect on L: windgrass,[13]; [31],0 (Herbicidal rate of 5% or less (almost no effect))
same,herbicidal effect on M: velvetleaf,[14]; [31],1 (Herbicidal rate of 5% or more and less than 20%)
same,herbicidal effect on N: redroot pigweed,[15]; [31],4 (Herbicidal rate of 70% or more and less than 90%)
same,herbicidal effect on O: lambsquarters,[16]; [31],3 (Herbicidal rate of 40% or more and less than 70%)
same,herbicidal effect on P: chickweed,[30],0 (Herbicidal rate of 5% or less (almost no effect))
same,herbicidal effect on Q: false cleavers,[17]; [31],0 (Herbicidal rate of 5% or less (almost no effect))
same,"F: southern crabgrass, herbicidal effect (criteria 0-5)",[18]; AAH 320 g/ha,5 (Herbicidal rate of 90% or more (almost completely withered))
same,"G: green foxtail, herbicidal effect (criteria 0-5)",[19]; AAH 320 g/ha,5 (Herbicidal rate of 90% or more (almost completely withered))
same,"H: barnyard grass, herbicidal effect (criteria 0-5)",[20]; AAH 320 g/ha,5 (Herbicidal rate of 90% or more (almost completely withered))
same,"I: wild oat, herbicidal effect (criteria 0-5)",[21]; AAH 320 g/ha,4 (Herbicidal rate of 70% or more and less than 90%)
same,"J: blackgrass, herbicidal effect (criteria 0-5)",[22]; AAH 320 g/ha,4 (Herbicidal rate of 70% or more and less than 90%)
same,"K: Italian ryegrass, herbicidal effect (criteria 0-5)",[23]; AAH 320 g/ha,5 (Herbicidal rate of 90% or more (almost completely withered))
same,"L: windgrass, herbicidal effect (criteria 0-5)",[24]; AAH 320 g/ha,5 (Herbicidal rate of 90% or more (almost completely withered))
same,"M: velvetleaf, herbicidal effect (criteria 0-5)",[25]; AAH 320 g/ha,5 (Herbicidal rate of 90% or more (almost completely withered))
same,"N: redroot pigweed, herbicidal effect (criteria 0-5)",[26]; AAH 320 g/ha,5 (Herbicidal rate of 90% or more (almost completely withered))
same,"O: lambsquarters, herbicidal effect (criteria 0-5)",[27]; AAH 320 g/ha,5 (Herbicidal rate of 90% or more (almost completely withered))
same,"P: chickweed, herbicidal effect (criteria 0-5)",[28]; AAH 320 g/ha,5 (Herbicidal rate of 90% or more (almost completely withered))
same,"R: persian speedwell, herbicidal effect (criteria 0-5)",[29]; AAH 320 g/ha,5 (Herbicidal rate of 90% or more (almost completely withered))
